Experimental data published in US20120309796A1, “BENZOCYCLOHEPTENE ACETIC ACIDS” (priority 2011, published 2012).

What follows are molecules tested against T1, human CRTH2 (Homo sapiens, UniProt Q9Y5Y4) (assay: Human CRTH2 Receptor Binding Assay (whole cell, [3H]ramatroban competition)). Settings: CHO-K1 cells expressing human CRTH2 and G-alpha16; 20 nM [3H]ramatroban; 1 hour, room temperature.
T1 sequence (Q9Y5Y4 1-395): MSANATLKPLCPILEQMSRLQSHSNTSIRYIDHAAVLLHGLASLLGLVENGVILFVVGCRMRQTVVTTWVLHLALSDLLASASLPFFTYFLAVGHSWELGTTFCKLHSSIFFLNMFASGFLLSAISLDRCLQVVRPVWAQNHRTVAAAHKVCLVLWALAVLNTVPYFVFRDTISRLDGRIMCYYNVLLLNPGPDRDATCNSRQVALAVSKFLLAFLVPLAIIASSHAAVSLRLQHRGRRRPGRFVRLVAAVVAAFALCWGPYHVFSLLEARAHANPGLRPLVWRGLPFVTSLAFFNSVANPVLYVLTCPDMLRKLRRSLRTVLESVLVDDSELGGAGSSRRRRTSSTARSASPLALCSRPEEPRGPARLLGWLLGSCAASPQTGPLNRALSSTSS
Set-up: two mammalian expression vectors that harbored human CRTH2 and G-alpha16 cDNAs; expressed in transfected cells
From the text: A whole cell receptor binding assay using [^3H]ramatroban as the competing radioactive ligand was employed to evaluate the compound binding activity to human CRTH2. The radioactive ligand [^3H]ramatroban was synthesized according to Sugimoto et. al. (Eur. J. Pharmacol. 2005, 524, 30-37) to a specific activity of 42 Ci/mmol
A cell line stably expressing human CRTH2 was established by transfecting CHO-K1 cells with two mammalian expression vectors that harbored human CRTH2 and G-alpha16 cDNAs, respectively, using FuGene® 6 transfection reagent (from Roche). Stable clones expressing CRTH2 were selected by staining each clone with BM16 (BD Pharmingen™ from BD Biosciences, a division of Becton, Dickinson and Company), which is a rat monoclonal antibody to human CRTH2. The cells were maintained as monolayer cultures in Ham's F-12 medium containing 10% fetal bovine serum, 100 units/mL penicillin, 100 μg/mL streptomycin, 2 mM glutamine, 0.5 mg/mL G418 (geneticin) for CRTH2, and 0.2 mg/mL hygromycin-B (for G-alpha 16). For whole cell receptor binding assay, the monolayer cells were rinsed once with PBS (phosphate buffered saline), dissociated using ethylenediaminetetraacetate (Versene™ EDTA from Lonza Inc.), and suspended in PBS containing 10 mM MgCl2 and 0.06% BSA (bovine serum albumin) at 1.5×10^6 cells/mL.
The binding reactions (0.2 mL) were performed in 96-well plates at room temperature in PBS containing 1.5×10^5 cells, 10 mM MgCl2, 0.06% BSA, 20 nM [^3H]ramatroban, and test compound at various concentrations. After 1 hour of binding reactions, the cells were harvested on GF™/B filter microplates (microtiter plates with embedded glass fiber from PerkinElmer, Inc.) and washed 5 times with PBS using a Filtermate™ Harvester (a cell harvester that harvests and washes cells from microplates from PerkinElmer, Inc.). The radioactivities bound to the cells were determined using a microplate scintillation counter (TopCount® NXT, from PerkinElmer, Inc.) after adding 50 μL of Microscint™ 20 scintillation fluid (from PerkinElmer, Inc.) to each well of the filter plates. The radioactivity from non-specific binding was determined by replacing compound with 10 μM of 15(R)-15-methyl PGD2 (from Cayman Chemical Company) in the reaction mixtures. The radioactivity bound to the cells in the absence of compound (total binding) was determined by replacing compound with 0.25% of DMSO (dimethyl sulfoxide) in the reaction mixture. Specific binding data were obtained by subtracting the radioactivity of non-specific binding from each binding data.
The IC50 value is defined as the concentration of the tested compound that is required for 50% inhibition of total specific binding. In order to calculate the IC50 value, the percent inhibition data were determined for 7 concentrations for each compound. The percent inhibition for a compound at each concentration was calculated according to the following formula, [1-(specific binding in the presence of compound)/(total specific binding)]×100. The IC50 value was then obtained by fitting the percent inhibition data to a sigmoidal dose-response (4 parameter logistic) model in the XLfit® software Excel add-in program [from ID Business Solutions Ltd., model 205, where F(x)=(A+(B−A)/(1+((C/x)̂D)))].

First: O=C(O)COc1cccc2c1CCCCC2NS(=O)(=O)c1cc(C(F)(F)F)cc(C(F)(F)F)c1 (single isomer, unassigned) [Example 45, [5-(3,5-Bis-trifluoromethyl-benzenesulfonylamino)-6,7,8,9-tetrahydro-5H-benzocyclohepten-1-yloxy]-acetic acid]
Second: O=C(O)COc1cccc2c1CCCCC2NS(=O)(=O)c1cc(F)cc(C(F)(F)F)c1 (centres unmarked) [Example 6, [5-(3-Fluoro-5-trifluoromethyl-benzenesulfonylamino)-6,7,8,9-tetrahydro-5H-benzocyclohepten-1-yloxy]-acetic acid]
The IC50 of the first is 8.7-fold higher: 1490 nM for the first, 171 nM for the second. The second is the more potent here.

Compared with `O=C(O)COc1cccc2c1CCCCC2NS(=O)(=O)c1cccc(-c2ccccc2)c1` (centres unmarked) [Example 3, [5-(Biphenyl-3-sulfonylamino)-6,7,8,9-tetrahydro-5H-benzocyclohepten-1-yloxy]-acetic acid], `CSc1cccc(-c2ccc(S(=O)(=O)NC3CCCCc4c(OCC(=O)O)cccc43)cc2)c1` (centres unmarked) [Example 27, [5-(3′-Methylsulfanyl-biphenyl-4-sulfonylamino)-6,7,8,9-tetrahydro-5H-benzocyclohepten-1-yloxy]-acetic acid] is 110-fold lower in IC50: 2610 nM for the first, 24.3 nM for the second.

First: CN(C1CCCCc2c(OCC(=O)O)cccc21)S(=O)(=O)c1cc(F)cc(C(F)(F)F)c1 (centres unmarked) [Example 7, {5-[(3-Fluoro-5-trifluoromethyl-benzenesulfonyl)-methyl-amino]-6,7,8,9-tetrahydro-5H-benzocyclohepten-1-yloxy}-acetic acid]
Second: COc1cc(C(F)(F)F)cc(S(=O)(=O)N(C)C2CCCCc3c(OCC(=O)O)cccc32)c1 (centres unmarked) [Example 14, {5-[(3-Methoxy-5-trifluoromethyl-benzenesulfonyl)-methyl-amino]-6,7,8,9-tetrahydro-5H-benzocyclohepten-1-yloxy}-acetic acid]
The IC50 of the first is 1.6-fold lower: 64.6 nM for the first, 106 nM for the second. The first is the more potent here.

Compared with `CS(=O)(=O)c1cc(S(C)(=O)=O)cc(S(=O)(=O)NC2CCCCc3c(OCC(=O)O)cccc32)c1` (centres unmarked) [Example 10, [5-(3,5-Bis-methanesulfonyl-benzenesulfonylamino)-6,7,8,9-tetrahydro-5H-benzocyclohepten-1-yloxy]-acetic acid], `CN(C1CCCCc2c(OCC(=O)O)cccc21)S(=O)(=O)c1cc(S(C)(=O)=O)cc(S(C)(=O)=O)c1` (centres unmarked) [Example 11, {5-[(3,5-Bis-methanesulfonyl-benzenesulfonyl)-methyl-amino]-6,7,8,9-tetrahydro-5H-benzocyclohepten-1-yloxy}-acetic acid] is 1.5-fold lower in IC50: 50.3 nM for the first, 33.4 nM for the second.

`CN(C1CCCCc2c(OCC(=O)O)cccc21)S(=O)(=O)c1ccc(-c2ccccc2)cc1` (centres unmarked) [Example 12, {5-[(Biphenyl-4-sulfonyl)-methyl-amino]-6,7,8,9-tetrahydro-5H-benzocyclohepten-1-yloxy}-acetic acid] and `CN(C1CCCCc2c(OCC(=O)O)cccc21)S(=O)(=O)c1ccc(-c2ccc(O)cc2)cc1` (centres unmarked) [Example 24, {5-[(4′-Hydroxy-biphenyl-4-sulfonyl)-methyl-amino]-6,7,8,9-tetrahydro-5H-benzocyclohepten-1-yloxy}-acetic acid] are within 1.5-fold of each other in IC50: 750 nM for the first, 987 nM for the second.

Compared with `COc1cc(C(F)(F)F)cc(S(=O)(=O)NC2CCCCc3c(OCC(=O)O)cccc32)c1` (centres unmarked) [Example 13, [5-(3-Methoxy-5-trifluoromethyl-benzenesulfonylamino)-6,7,8,9-tetrahydro-5H-benzocyclohepten-1-yloxy]-acetic acid], `CC(=O)c1cc(C(F)(F)F)cc(S(=O)(=O)NC2CCCCc3c(OCC(=O)O)cccc32)c1` (centres unmarked) [Example 15, [5-(3-Acetyl-5-trifluoromethyl-benzenesulfonylamino)-6,7,8,9-tetrahydro-5H-benzocyclohepten-1-yloxy]-acetic acid] is 48-fold lower in IC50: 158 nM for the first, 3.3 nM for the second.

Going from `CC(=O)c1cc(C(F)(F)F)cc(S(=O)(=O)N(C)C2CCCCc3c(OCC(=O)O)cccc32)c1` (centres unmarked) [Example 16, {5-[(3-Acetyl-5-trifluoromethyl-benzenesulfonyl)-methyl-amino]-6,7,8,9-tetrahydro-5H-benzocyclohepten-1-yloxy}-acetic acid] to `CN(C1CCCCc2c(OCC(=O)O)cccc21)S(=O)(=O)c1cc(C(F)(F)F)cc(S(C)(=O)=O)c1` (centres unmarked) [Example 18, {5-[(3-Methanesulfonyl-5-trifluoromethyl-benzenesulfonyl)-methyl-amino]-6,7,8,9-tetrahydro-5H-benzocyclohepten-1-yloxy}-acetic acid], the IC50 rises from 5.9 nM to 11.4 nM (1.9-fold). The first is the more potent here.

Compared with `CS(=O)(=O)c1cc(C(F)(F)F)cc(S(=O)(=O)NC2CCCCc3c(OCC(=O)O)cccc32)c1` (centres unmarked) [Example 17, [5-(3-Methanesulfonyl-5-trifluoromethyl-benzenesulfonylamino)-6,7,8,9-tetrahydro-5H-benzocyclohepten-1-yloxy]-acetic acid], `Cc1cc(-c2ccc(S(=O)(=O)NC3CCCCc4c(OCC(=O)O)cccc43)cc2)cc(C(C)(C)C)c1` (centres unmarked) [Example 21, [5-(3′-tert-Butyl-5′-methyl-biphenyl-4-sulfonylamino)-6,7,8,9-tetrahydro-5H-benzocyclohepten-1-yloxy]-acetic acid] is 3-fold higher in IC50: 11.4 nM for the first, 34.7 nM for the second. The first is the more potent here.

First: CC(C)c1cccc(-c2ccc(S(=O)(=O)NC3CCCCc4c(OCC(=O)O)cccc43)cc2)c1 (centres unmarked) [Example 19, [5-(3′-Isopropyl-biphenyl-4-sulfonylamino)-6,7,8,9-tetrahydro-5H-benzocyclohepten-1-yloxy]-acetic acid]
Second: CC(C)c1cccc(-c2ccc(S(=O)(=O)N(C)C3CCCCc4c(OCC(=O)O)cccc43)cc2)c1 (centres unmarked) [Example 20, {5-[(3′-Isopropyl-biphenyl-4-sulfonyl)-methyl-amino]-6,7,8,9-tetrahydro-5H-benzocyclohepten-1-yloxy}-acetic acid]
The IC50 of the first is 8.2-fold lower: 13 nM for the first, 106 nM for the second.

Going from `Cc1cc(-c2ccc(S(=O)(=O)N(C)C3CCCCc4c(OCC(=O)O)cccc43)cc2)cc(C(C)(C)C)c1` (centres unmarked) [Example 22, {5-[(3′-tert-Butyl-5′-methyl-biphenyl-4-sulfonyl)-methyl-amino]-6,7,8,9-tetrahydro-5H-benzocyclohepten-1-yloxy}-acetic acid] to `Cc1cncc(-c2ccc(S(=O)(=O)N(C)C3CCCCc4c(OCC(=O)O)cccc43)cc2)c1` (centres unmarked) [Example 26, (5-{Methyl-[4-(5-methyl-pyridin-3-yl)-benzenesulfonyl]-amino}-6,7,8,9-tetrahydro-5H-benzocyclohepten-1-yloxy)-acetic acid], the IC50 rises from 189 nM to 1500 nM (7.9-fold). The first is the more potent here.

Going from `CSc1cccc(-c2ccc(S(=O)(=O)N(C)C3CCCCc4c(OCC(=O)O)cccc43)cc2)c1` (centres unmarked) [Example 28, {5-[Methyl-(3′-methylsulfanyl-biphenyl-4-sulfonyl)-amino]-6,7,8,9-tetrahydro-5H-benzocyclohepten-1-yloxy}-acetic acid] to `CN(C1CCCCc2c(OCC(=O)O)cccc21)S(=O)(=O)c1ccc(-c2cccc(S(C)(=O)=O)c2)cc1` (centres unmarked) [Example 30, {5-[(3′-Methanesulfonyl-biphenyl-4-sulfonyl)-methyl-amino]-6,7,8,9-tetrahydro-5H-benzocyclohepten-1-yloxy}-acetic acid], the IC50 falls from 603 nM to 189 nM (3.2-fold).

`CC(C)c1cccc(-c2ccc(S(=O)(=O)N(C)C3CCCCc4c(OCC(=O)O)cccc43)nc2)c1` (centres unmarked) [Example 32, (5-{[5-(3-Isopropyl-phenyl)-pyridine-2-sulfonyl]-methyl-amino}-6,7,8,9-tetrahydro-5H-benzocyclohepten-1-yloxy)-acetic acid] showed an IC50 of 123 nM.
